B1: CstA (CstA-6His) (Escherichia coli K-12) (protein)
chain: MNKSGKYLVWTVLSVMGAFALGYIALNRGEQINALWIVVASVCIYLIAYRFYGLYIAKNVLAVDPTRMTPAVRHNDGLDYVPTDKKVLFGHHFAAIAGAGPLVGPVLAAQMGYLPGMIWLLAGVVLAGAVQDFMVLFVSTRRDGRSLGELVKEEMGPTAGVIALVACFMIMVIILAVLAMIVVKALTHSPWGTYTVAFTIPLALFMGIYLRYLRPGRIGEVSVIGLVFLIFAIISGGWVAESPTWAPYFDFTGVQLTWMLVGYGFVAAVLPVWLLLAPRDYLSTFLKIGTIVGLAVGILIMRPTLTMPALTKFVDGTGPVWTGNLFPFLFITIACGAVSGFHALISSGTTPKMLANEGQACFIGYGGMLMESFVAIMALVSACIIDPGVYFAMNSPMAVLAPAGTADVVASAAQVVSSWGFSITPDTLNQIASEVGEQSIISRAGGAPTLAVGMAYILHGALGGMMDVAFWYHFAILFEALFILTAVDAGTRAARFMLQDLLGVVSPGLKRTDSLPANLLATALCVLAWGYFLHQGVVDPLGGINTLWPLFGIANQMLAGMALMLCAVVLFKMKRQRYAWVALVPTAWLLICTLTAGWQKAFSPDAKVGFLAIANKFQAMIDSGNIPSQYTESQLAQLVFNNRLDAGLTIFFMVVVVVLALFSIKTALAALKDPKPTAKETPYEPMPENVEEIVAQAKGAH
notes: full-length, 701 residues, 6His tag, from plasmid pBAD24-cstA6H (uninduced) in intact E. coli MG1655 ΔbtsT ΔcstA ΔyhjX cells; inner membrane protein, TC# 2.A.114

Legend:
CstA (CstA-6His) = target: T1, CstA (CstA-6His) (Escherichia coli, UniProt P15078); assay: competition with […]pyruvate uptake into intact cells, rapid filtration; type: cell-based; conditions: 1 mM competitor against 10 µM [14C]pyruvate; Tris/MES pH 7.5, 5 mM MgCl2, 15 °C; competitor for the pyruvate site
T1 construct: full-length, 701 residues, 6His tag, from plasmid pBAD24-cstA6H (uninduced) in intact E. coli MG1655 ΔbtsT ΔcstA ΔyhjX cells; inner membrane protein, TC# 2.A.114

[1] = substrate: CC(=O)C(=O)O; assay: cells, lysate or membranes; type: cell-based, Escherichia coli; conditions: labelled compound, intact cells of 3Δ mutant with p-cstA, Tris/MES pH 7.5, 5 mM MgCl2, 15 °C, background of 3Δ mutant subtracted, proton-gradient driven

Molecule	competition with [14C]pyruvate uptake into intact cells, rapid filtration (CstA (CstA-6His))	Km [1] [µM]
O=C(O)C(=O)CBr [Br-pyruvate]	Only pyruvate itself or Br-pyruvate (a synthetic analogue) were found to act as competitors.	
B1		242

Reference: paper PMC7730263, “Function and Regulation of the Pyruvate Transporter CstA in Escherichia coli” (International Journal of Molecular Sciences, 2020)
